Results on one compound are retold here after patent publication US6534049B2, “Synthetic soil-extract materials and medicaments for human immunodeficiency viruses based thereon” (priority 1997, dated 2003).

Data set [1] has as its target T1, gp120/CD4 interaction (Human immunodeficiency virus type 1 group M subtype B, UniProt P03375).
Data set [2] addresses T1, gp120/CD4 interaction. In words: cell-based.
In data set [3] the test system is HeLa CD4 LTR β-gal cells. In words: Compound toxicity in HeLa CD4 LTR β-gal cells (XTT). On the technique in general: Tetrazolium assays rely on reduction of a dye to a coloured formazan, in cell work by metabolically active cells.
For data set [4], the system named is HeLa CD4 LTR β-gal cells. In words: HIV attachment inhibition assay (β-galactosidase chemiluminescence).

Values after ≈ are worked out from the molar mass of the structure shown. A value given as a limit tells only on which side of the number the result lay.

With `COc1cc(-c2ccc(/N=N/c3ccc4c(S(=O)(=O)O)cc(S(=O)(=O)O)c(N)c4c3O)c(OC)c2)ccc1/N=N/c1ccc2c(S(=O)(=O)O)cc(S(=O)(=O)O)c(N)c2c1O` [Chicago Sky Blue], the “TI (=IC50/TC50)” value in data set [1] is recorded as greater than 5; in data set [4] (general virus attachment), greater than 18. For the same compound, the IC50 in data set [2] was 2280 nM; in data set [4] (Human immunodeficiency virus 1, HeLa), 0.53 µg/mL (≈ 0.586 µM). The TC50 was greater than 10 µg/mL in data set [3] (Table 10, XTT sister plate) and greater than 10 µg/mL in data set [3] (Table 11).

A word on the IC50: it is the midpoint of a concentration-inhibition curve. Read a high IC50 as weaker potency in that assay.
